How the values were obtained:
VIM-1 = VIM-1 (Pseudomonas aeruginosa (strain ATCC 15692 / DSM 22644 / CIP 104116 / JCM 14847 / LMG 12228 / 1C / PRS 101 / PAO1), UniProt A0A0F7KYQ8); assay: biochemical; conditions: CCF2-FA substrate, 2 hours at 25° C
Summary of the method: (§1)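 Semi-log dose-response curves, fitted with a 4-parameter model, gave IC50s. The underlying signal was CCF2-FA fluorescence following 2 hours at 25° C with enzyme, substrate and inhibitor combined.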

[1] = tested on: Serratia marcescens expressing IMP-1 (CL5741); assay type: cell-based; conditions: with imipenem 1 μg/ml, 95% inhibition of bacterial growth; for Serratia marcescens MITC95: IMP-1 (CL5741)
Summary of the method: (§2)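 Restoration of imipenem susceptibility (1 μg/ml imipenem) was judged by absorbance after 22–24 h at 35° C. Test compound was added to bacteria suspended 1:100 in 1.1× CAMHB from overnight blood-agar cultures.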

[2] = tested on: Escherichia coli expressing NDM-1 (CLB30005, CLB30016); assay type: cell-based; conditions: with imipenem 1 μg/ml, 95% inhibition of bacterial growth; for Escherichia coli MITC95: NDM-1 (CLB30016)
Summary of the method: as §2

[3] = tested on: Klebsiella pneumoniae expressing VIM-1 (IHMA599644); assay type: cell-based; conditions: with imipenem 1 μg/ml, 95% inhibition of bacterial growth; for Klebsiella pneumoniae MITC95: VIM-1 (IHMA599644)
Summary of the method: as §2

[4] = tested on: P. aeruginosa expressing IMP-1, efflux− (MB9799); assay: Efflux: concentration of MBL inhibitor which restores susceptibility to imipenem; assay type: cell-based, Pseudomonas aeruginosa; conditions: imipenem at 2 μg/mL, in the presence of a class A, C, D serine β-lactamase inhibitor closely related to relebactam
Description: (§3) The strain background is Pseudomonas aeruginosa PAO1.

IMP-1 = IMP-1 (Serratia marcescens, UniProt P52699); assay: biochemical; assay type: biochemical; conditions: CCF2-FA substrate, 2 hours at 25° C; read-out: IMP-1 IC50
Summary of the method: as §1

NDM-1 = NDM-1 (Klebsiella pneumoniae, UniProt C7C422); assay: biochemical; assay type: biochemical; conditions: CCF2-FA substrate, 2 hours at 25° C; read-out: NDM-1 IC50
Summary of the method: as §1

[5] = tested on: P. aeruginosa expressing IMP-1, efflux+ (MB9798); assay type: cell-based, Pseudomonas aeruginosa; conditions: for P. aeruginosa expressing IMP-1, efflux+ (MB9798) MITC95: imipenem at 2 μg/mL, in the presence of a class A, C, D serine β-lactamase inhibitor closely related to relebactam; for Efflux ratio: ratio MITC95 PA_9798/MITC95 PA_9799
Description: as §3

IMP-1, sequence (P52699 whole entry, looked up, species assumed): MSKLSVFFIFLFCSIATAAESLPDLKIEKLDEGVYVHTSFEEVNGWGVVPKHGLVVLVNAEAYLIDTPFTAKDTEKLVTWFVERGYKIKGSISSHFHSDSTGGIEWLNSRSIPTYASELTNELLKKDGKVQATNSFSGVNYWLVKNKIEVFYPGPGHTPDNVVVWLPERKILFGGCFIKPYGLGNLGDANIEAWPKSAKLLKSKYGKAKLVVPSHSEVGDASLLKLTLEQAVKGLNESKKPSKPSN
NDM-1, sequence (C7C422 whole entry, looked up, species assumed): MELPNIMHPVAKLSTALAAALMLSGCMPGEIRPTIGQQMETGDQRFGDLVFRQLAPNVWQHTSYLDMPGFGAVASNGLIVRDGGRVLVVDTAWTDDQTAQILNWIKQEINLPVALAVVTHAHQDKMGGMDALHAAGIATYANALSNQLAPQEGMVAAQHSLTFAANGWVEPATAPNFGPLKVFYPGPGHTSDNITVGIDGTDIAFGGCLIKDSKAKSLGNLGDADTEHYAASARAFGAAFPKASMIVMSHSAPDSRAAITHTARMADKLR

NCCS(=O)(=O)c1ccc(-c2ccc(C3CCNCC3)cc2)c(-c2nn[nH]n2)c1S(N)(=O)=O [Example 322, 4-((2-aminoethyl)sulfonyl)-4′-(piperidin-4-yl)-2-(2H-tetrazol-5-yl)-[1,1′-biphenyl]-3-sulfonamide]
IC50 (VIM-1): 0.205 nM
Serratia marcescens MITC95 [1]: 1.563 µM
Escherichia coli MITC95 [2]: 1.563 µM
Klebsiella pneumoniae MITC95 [3]: 3.125 µM
P. aeruginosa expressing IMP-1, efflux− (MB9799) MITC95 [4]: 0.7813 µM
IC50 (IMP-1): 0.17 nM
IC50 (NDM-1): 0.731 nM
P. aeruginosa expressing IMP-1, efflux+ (MB9798) MITC95 [5]: 1.563 µM
Efflux ratio [5]: 2.00

Nc1nccc(-c2ccc(S(=O)(=O)C3CNC3)c(S(N)(=O)=O)c2-c2nn[nH]n2)c1N [Example 224, 6-(azetidin-3-ylsulfonyl)-3-(2,3-diaminopyridin-4-yl)-2-(2H-tetrazol-5-yl)benzenesulfonamide]
IC50 (VIM-1): 1.29 nM
Serratia marcescens expressing IMP-1 (CL5741) MITC95 [1]: 3.125 µM
Escherichia coli expressing NDM-1 (CLB30016) MITC95 [2]: 0.7813 µM
Klebsiella pneumoniae expressing VIM-1 (IHMA599644) MITC95 [3]: 3.125 µM
P. aeruginosa expressing IMP-1, efflux− (MB9799) MITC95 [4]: 1.563 µM
IC50 (IMP-1): 2.58 nM
IC50 (NDM-1): 0.618 nM
P. aeruginosa expressing IMP-1, efflux+ (MB9798) MITC95 [5]: 3.125 µM
Efflux ratio [5]: 2.00

CSc1ccc(-c2ccc(C3CCNCC3)cc2)c(-c2nnn[nH]2)c1S(N)(=O)=O [Example 234, 4-(Methylthio)-4′-(piperidin-4-yl)-2-(1H-tetrazol-5-yl)-[1,1′-biphenyl]-3-sulfonamide]
IC50 (VIM-1): 13.9 nM
Serratia marcescens expressing IMP-1 (CL5741) MITC95 [1]: 3.125 µM
Escherichia coli expressing NDM-1 (CLB30016) MITC95 [2]: 3.125 µM
Klebsiella pneumoniae expressing VIM-1 (IHMA599644) MITC95 [3]: 12.5 µM
P. aeruginosa expressing IMP-1, efflux− (MB9799) MITC95 [4]: 0.7813 µM
IC50 (IMP-1): 4.37 nM
IC50 (NDM-1): 15.7 nM
P. aeruginosa expressing IMP-1, efflux+ (MB9798) MITC95 [5]: 50 µM
Efflux ratio [5]: 64.00

NCCS(=O)(=O)c1ccc(-c2ccnc3c2CCCC3)c(-c2nn[nH]n2)c1S(N)(=O)=O [Example 271, 6-(2-aminoethylsulfonyl)-3-(5,6,7,8-tetrahydroquinolin-4-yl)-2-(2H-tetrazol-5-yl)benzenesulfonamide]
IC50 (VIM-1): 0.177 nM
Serratia marcescens MITC95 [1]: 3.125 µM
Escherichia coli MITC95 [2]: 3.125 µM
Klebsiella pneumoniae MITC95 [3]: 3.125 µM
P. aeruginosa expressing IMP-1, efflux− (MB9799) MITC95 [4]: 1.563 µM
IC50 (IMP-1): 0.687 nM
IC50 (NDM-1): 1.33 nM
P. aeruginosa expressing IMP-1, efflux+ (MB9798) MITC95 [5]: 12.5 µM
Efflux ratio [5]: 8.00

NCCS(=O)(=O)c1ccc(-c2cccc3[nH]c(C(F)(F)CN)nc23)c(-c2nn[nH]n2)c1S(N)(=O)=O [Example 307, 3-(2-(2-amino-1,1-difluoroethyl)-1H-benzo[d]imidazol-4-yl)-6-((2-aminoethyl)sulfonyl)-2-(2H-tetrazol-5-yl) benzenesulfonamide]
IC50 (VIM-1): 0.0306 nM
Serratia marcescens MITC95 [1]: 0.7813 µM
Escherichia coli MITC95 [2]: 0.7813 µM
Klebsiella pneumoniae MITC95 [3]: 0.7813 µM
P. aeruginosa expressing IMP-1, efflux− (MB9799) MITC95 [4]: 0.3906 µM
IC50 (IMP-1): 0.0868 nM
IC50 (NDM-1): 0.0372 nM
P. aeruginosa expressing IMP-1, efflux+ (MB9798) MITC95 [5]: 0.3906 µM
Efflux ratio [5]: 1.00

Reference: patent publication US10227331B2 (priority 2015, dated 2019)
